Assay results from PubChem BioAssay (NCI).
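Following 48 hours of exposure in 96-well plates, responses at five concentrations were used to interpolate endpoints linearly. TGI marks complete inhibition of growth.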

Legend:
Experiment in all cases: DTP human tumour cell line panel, 48 h
CCRF-CEM leukemia = system: CCRF-CEM leukemia
HCC-2998 colon = system: HCC-2998 colon
HCT-15 colon = system: HCT-15 colon
HOP-92 NSCLC = system: HOP-92 NSCLC
K-562 leukemia = system: K-562 leukemia
KM12 colon = system: KM12 colon
MDA-MB-231 breast = system: MDA-MB-231 breast
MDA-MB-435 = system: MDA-MB-435
OVCAR-4 ovarian = system: OVCAR-4 ovarian
TK-10 renal = system: TK-10 renal

SMILES | TGI (CCRF-CEM leukemia) [µM] | TGI (HCC-2998 colon) [µM] | TGI (HCT-15 colon) [µM] | TGI (HOP-92 NSCLC) [µM] | TGI (K-562 leukemia) [µM] | TGI (KM12 colon) [µM] | TGI (MDA-MB-231 breast) [µM] | TGI (MDA-MB-435) [µM] | TGI (OVCAR-4 ovarian) [µM] | TGI (TK-10 renal) [µM]
CCOP(=O)(OCC)/C(=C/c1cccs1)CC(C)=O | > 100 | > 100 | > 100 | > 100 | > 100 | > 100 | > 100 | > 100 | > 100 | > 100
O=c1[nH]n(Cc2ccccc2)c2ccc([N+](=O)[O-])cc12 | > 100 | > 100 | > 100 | > 100 | > 100 | > 100 | 78.6 | 85.3 | > 100 | > 100
CC(C)/C(Cl)=N\OC(NC(=O)P(=O)(c1ccccc1)c1ccccc1)(C(F)(F)F)C(F)(F)F | 22.5 | 33.4 | 37.8 | 12.8 | 23.8 | 23.1 | 34.4 | 30.6 | 25.1 | 25.2
CC(C)C(C/C=C1\CC(CO)(COC(=O)C2CCCCC2)OC1=O)C(C)C (stereo not given) | 43 | 65.1 | 38.8 | 37.5 | 55.6 | 39.5 | 36.1 | > 100 | 36 | 41.8
O=C(N/N=C/C=C/c1ccccc1)c1ccccc1Nc1ccccc1C(=O)N/N=C/C=C/c1ccccc1 | > 100 | > 100 | > 100 | > 100 | > 100 | > 100 | > 100 | > 100 | > 100 | > 100
CCOC(=O)c1cc2c([N+](=O)[O-])c(N)ccc2s1 | > 100 | > 100 | > 100 | > 100 | > 100 | > 100 | > 100 | > 100 | > 100 | > 100
CCc1cc2c(c3c1CCCC3=O)CC1(Cc3ccc(C(=O)OC)cc3C1)C2 (stereo not given) | 91.4 | > 100 | > 100 | > 100 | > 100 | > 100 | > 100 | > 100 | > 100 | > 100
CC1(C)CC(=O)C2(CC(CSc3ccccc3)C(CS(=O)(=O)c3ccccc3)C2)C(=O)C1 (stereo not given) | > 100 | > 100 | > 100 | > 100 | > 100 | > 100 | > 100 | > 100 | > 100 | > 100
